According to ChEMBL document CHEMBL3885861, “Open TG-GATES”:

Species on record: Rattus norvegicus
Assay: Open TG-GATES - Regimen: Single
Assay type: toxicity, organism-based, Sprague-Dawley
Parameters: regimen Single, gender Male, age 6 weeks
Details: in vivo, po, route gavage; for APTT / Bas / Eos / Fbg / Hb / Ht / Lym / MCH / MCHC / MCV / Mono / Neu / PT / Plat / RBC / Ret / WBC: tissue Blood; for ALP / ALT / AST / BUN / CRE / DBIL / GLC / IP / K / Na / PL / RALB / TBIL / TC / TG / TP / gamma-GTP: tissue Plasma
[1] = 100 mg/kg, 3 h, dose level Middle
[2] = 100 mg/kg, 6 h, dose level Middle
[3] = 100 mg/kg, 9 h, dose level Middle
[4] = 100 mg/kg, 24 h, dose level Middle
[5] = 300 mg/kg, 3 h, dose level High
[6] = 300 mg/kg, 6 h, dose level High
[7] = 300 mg/kg, 9 h, dose level High
[8] = 300 mg/kg, 24 h, dose level High

`NS(=O)(=O)c1cc(C(=O)O)c(NCc2ccco2)cc1Cl` [FUROSEMIDE] was tested, and the TERMINAL_BW [1] was 199.5 g, the APTT [1] was 18.8 s and the Bas [1] was 0%. For the same molecule, the Eos [1] was 1%, the Fbg [1] was 324.8 mg/dL and the Hb [1] was 14.3 g/dL. The Ht [1] was 42.5%, the Lym [1] was 70.8% and the MCH [1] was 21.4 pg. It also gave an MCHC [1] of 33.7%, an MCV [1] of 63.3 fL and a Mono [1] of 5.4%. For the same molecule, the Neu [1] was 22%, the PT [1] was 14.9 s and the Plat [1] was 121.3 x10_4/uL. For the same molecule, the RBC [1] was 670.4 x10_4/ul, the Ret [1] was 7.9% and the WBC [1] was 73.3 x10_2/uL. For the same molecule, the ALP [1] was 1574.2 IU/L, the ALT [1] was 43.6 IU/L and the AST [1] was 77.6 IU/L. The BUN [1] was 19.8 mg/dL, the CRE [1] was 0.3 mg/dL and the DBIL [1] was 0.01 mg/dL. The GLC [1] was 182.2 mg/dL, the IP [1] was 11.3 mg/dL and the K [1] was 3.6 meq/L. It also gave a Na [1] of 140.8 meq/L, a PL [1] of 161.6 mg/dL and an RALB [1] of 3 g/dL. For the same molecule, the TBIL [1] was 0.064 mg/dL, the TC [1] was 88 mg/dL and the TG [1] was 64.2 mg/dL. For the same molecule, the TP [1] was 6.4 g/dL, the gamma-GTP [1] was 1 IU/L and the TERMINAL_BW [2] was 195.4 g. It also gave an APTT [2] of 17.3 s, a Bas [2] of 0% and an Eos [2] of 1%. It also gave a Fbg [2] of 323.2 mg/dL, a Hb [2] of 14.7 g/dL and a Ht [2] of 43.3%. For the same molecule, the Lym [2] was 64.8%, the MCH [2] was 20.8 pg and the MCHC [2] was 33.8%. For the same molecule, the MCV [2] was 61.7 fL, the Mono [2] was 4.2% and the Neu [2] was 29.6%. It also gave a PT [2] of 14.9 s, a Plat [2] of 125.9 x10_4/uL and an RBC [2] of 703.4 x10_4/ul. The Ret [2] was 7.7%, the WBC [2] was 73.2 x10_2/uL and the ALP [2] was 1685 IU/L. It also gave an ALT [2] of 42.6 IU/L, an AST [2] of 84.6 IU/L and a BUN [2] of 21.8 mg/dL. For the same molecule, the CRE [2] was 0.2 mg/dL, the DBIL [2] was 0.012 mg/dL and the GLC [2] was 192.6 mg/dL. It also gave an IP [2] of 10.4 mg/dL, a K [2] of 3.5 meq/L and a Na [2] of 141.2 meq/L. It also gave a PL [2] of 162.8 mg/dL, an RALB [2] of 3 g/dL and a TBIL [2] of 0.068 mg/dL. It also gave a TC [2] of 83.6 mg/dL, a TG [2] of 71.8 mg/dL and a TP [2] of 6.4 g/dL. For the same molecule, the gamma-GTP [2] was 1 IU/L, the TERMINAL_BW [3] was 193.8 g and the APTT [3] was 18 s. The Bas [3] was 0%, the Eos [3] was 0.8% and the Fbg [3] was 334.8 mg/dL. For the same molecule, the Hb [3] was 14.6 g/dL, the Ht [3] was 42.6% and the Lym [3] was 68.6%. For the same molecule, the MCH [3] was 20.8 pg, the MCHC [3] was 34.1% and the MCV [3] was 61.1 fL. It also gave a Mono [3] of 3.2%, a Neu [3] of 26.8% and a PT [3] of 15 s. It also gave a Plat [3] of 133.5 x10_4/uL, an RBC [3] of 697.8 x10_4/ul and a Ret [3] of 7.4%. The WBC [3] was 72.2 x10_2/uL, the ALP [3] was 1341.8 IU/L and the ALT [3] was 36.2 IU/L. It also gave an AST [3] of 74.6 IU/L, a BUN [3] of 20.2 mg/dL and a CRE [3] of 0.2 mg/dL. It also gave a DBIL [3] of 0.01 mg/dL, a GLC [3] of 173.8 mg/dL and an IP [3] of 11.1 mg/dL. It also gave a K [3] of 3.6 meq/L, a Na [3] of 141.4 meq/L and a PL [3] of 149.6 mg/dL. The RALB [3] was 3 g/dL, the TBIL [3] was 0.072 mg/dL and the TC [3] was 88.6 mg/dL. For the same molecule, the TG [3] was 36.2 mg/dL, the TP [3] was 6.3 g/dL and the gamma-GTP [3] was 0.8 IU/L. The TERMINAL_BW [4] was 215 g, the APTT [4] was 17.7 s and the Bas [4] was 0%. The Eos [4] was 0.8%, the Fbg [4] was 286.8 mg/dL and the Hb [4] was 13.3 g/dL. For the same molecule, the Ht [4] was 39.6%, the Lym [4] was 80.4% and the MCH [4] was 21.9 pg. The MCHC [4] was 33.7%, the MCV [4] was 64.9 fL and the Mono [4] was 2.4%. The Neu [4] was 15%, the PT [4] was 15.7 s and the Plat [4] was 102.2 x10_4/uL. The RBC [4] was 610.4 x10_4/ul, the Ret [4] was 7% and the WBC [4] was 102.9 x10_2/uL. It also gave an ALP [4] of 1380 IU/L, an ALT [4] of 42.4 IU/L and an AST [4] of 68.2 IU/L. It also gave a BUN [4] of 19.4 mg/dL, a CRE [4] of 0.2 mg/dL and a DBIL [4] of 0.008 mg/dL. The GLC [4] was 189.4 mg/dL, the IP [4] was 8 mg/dL and the K [4] was 3.7 meq/L. The Na [4] was 141.6 meq/L, the PL [4] was 155.2 mg/dL and the RALB [4] was 2.6 g/dL. For the same molecule, the TBIL [4] was 0.054 mg/dL, the TC [4] was 81.4 mg/dL and the TG [4] was 56 mg/dL. The TP [4] was 5.7 g/dL, the gamma-GTP [4] was 0.2 IU/L and the TERMINAL_BW [5] was 199.2 g. It also gave an APTT [5] of 18.3 s, a Bas [5] of 0% and an Eos [5] of 1%. For the same molecule, the Fbg [5] was 357 mg/dL, the Hb [5] was 14.8 g/dL and the Ht [5] was 43.9%. It also gave a Lym [5] of 66.6%, an MCH [5] of 21.4 pg and an MCHC [5] of 33.7%. It also gave an MCV [5] of 63.6 fL, a Mono [5] of 4.6% and a Neu [5] of 26.4%. It also gave a PT [5] of 14.8 s, a Plat [5] of 119.6 x10_4/uL and an RBC [5] of 690.4 x10_4/ul. It also gave a Ret [5] of 8.3%, a WBC [5] of 67.2 x10_2/uL and an ALP [5] of 1694 IU/L. It also gave an ALT [5] of 47.2 IU/L, an AST [5] of 78.4 IU/L and a BUN [5] of 19.4 mg/dL. It also gave a CRE [5] of 0.3 mg/dL, a DBIL [5] of 0.01 mg/dL and a GLC [5] of 193.8 mg/dL. The IP [5] was 12.8 mg/dL, the K [5] was 3.4 meq/L and the Na [5] was 140 meq/L. The PL [5] was 168.2 mg/dL, the RALB [5] was 3.2 g/dL and the TBIL [5] was 0.062 mg/dL. The TC [5] was 91.6 mg/dL, the TG [5] was 69 mg/dL and the TP [5] was 6.9 g/dL. It also gave a gamma-GTP [5] of 0.8 IU/L, a TERMINAL_BW [6] of 194.8 g and an APTT [6] of 20.9 s. The Bas [6] was 0%, the Eos [6] was 1% and the Fbg [6] was 381.6 mg/dL. It also gave a Hb [6] of 15.3 g/dL, a Ht [6] of 45.3% and a Lym [6] of 62.6%. It also gave an MCH [6] of 21.4 pg, an MCHC [6] of 33.8% and an MCV [6] of 63.5 fL. The Mono [6] was 4%, the Neu [6] was 31.8% and the PT [6] was 14.4 s. For the same molecule, the Plat [6] was 126.6 x10_4/uL, the RBC [6] was 715 x10_4/ul and the Ret [6] was 7.7%. It also gave a WBC [6] of 72.7 x10_2/uL, an ALP [6] of 1419.8 IU/L and an ALT [6] of 39.2 IU/L. The AST [6] was 77.2 IU/L, the BUN [6] was 24.4 mg/dL and the CRE [6] was 0.3 mg/dL. The DBIL [6] was 0.008 mg/dL, the GLC [6] was 190.6 mg/dL and the IP [6] was 11.4 mg/dL. For the same molecule, the K [6] was 3.5 meq/L, the Na [6] was 140 meq/L and the PL [6] was 190 mg/dL. It also gave an RALB [6] of 3.2 g/dL, a TBIL [6] of 0.068 mg/dL and a TC [6] of 111.4 mg/dL. The TG [6] was 64.2 mg/dL, the TP [6] was 6.9 g/dL and the gamma-GTP [6] was 0.6 IU/L. For the same molecule, the TERMINAL_BW [7] was 192 g, the APTT [7] was 19.5 s and the Bas [7] was 0%. The Eos [7] was 0.8%, the Fbg [7] was 382.4 mg/dL and the Hb [7] was 15.3 g/dL. For the same molecule, the Ht [7] was 44.8%, the Lym [7] was 66.4% and the MCH [7] was 21.3 pg. It also gave an MCHC [7] of 34.1%, an MCV [7] of 62.5 fL and a Mono [7] of 3.4%. The Neu [7] was 28.4%, the PT [7] was 14.4 s and the Plat [7] was 117.9 x10_4/uL. The RBC [7] was 716 x10_4/ul, the Ret [7] was 7.8% and the WBC [7] was 73.1 x10_2/uL. It also gave an ALP [7] of 1461.8 IU/L, an ALT [7] of 38 IU/L and an AST [7] of 71.6 IU/L. For the same molecule, the BUN [7] was 25.2 mg/dL, the CRE [7] was 0.2 mg/dL and the DBIL [7] was 0.012 mg/dL. It also gave a GLC [7] of 186.8 mg/dL, an IP [7] of 10.9 mg/dL and a K [7] of 3.3 meq/L. The Na [7] was 141.6 meq/L, the PL [7] was 176.8 mg/dL and the RALB [7] was 3.2 g/dL. The TBIL [7] was 0.078 mg/dL, the TC [7] was 102 mg/dL and the TG [7] was 33.6 mg/dL. For the same molecule, the TP [7] was 6.8 g/dL, the gamma-GTP [7] was 1 IU/L and the TERMINAL_BW [8] was 195.5 g. For the same molecule, the APTT [8] was 16.8 s, the Bas [8] was 0.2% and the Eos [8] was 1%. It also gave a Fbg [8] of 386.6 mg/dL, a Hb [8] of 14.5 g/dL and a Ht [8] of 41.9%. It also gave a Lym [8] of 74%, an MCH [8] of 21.2 pg and an MCHC [8] of 34.5%. For the same molecule, the MCV [8] was 61.3 fL, the Mono [8] was 3.4% and the Neu [8] was 20.4%. The PT [8] was 15.2 s, the Plat [8] was 117.8 x10_4/uL and the RBC [8] was 683.8 x10_4/ul. The Ret [8] was 6.7%, the WBC [8] was 95.6 x10_2/uL and the ALP [8] was 1470.8 IU/L. It also gave an ALT [8] of 44.4 IU/L, an AST [8] of 72.8 IU/L and a BUN [8] of 36.2 mg/dL. The CRE [8] was 0.3 mg/dL, the DBIL [8] was 0.014 mg/dL and the GLC [8] was 178.4 mg/dL. For the same molecule, the IP [8] was 7.8 mg/dL, the K [8] was 3.3 meq/L and the Na [8] was 138.2 meq/L. It also gave a PL [8] of 159.2 mg/dL, an RALB [8] of 3 g/dL and a TBIL [8] of 0.064 mg/dL. It also gave a TC [8] of 93.2 mg/dL, a TG [8] of 43 mg/dL and a TP [8] of 6.4 g/dL. For the same molecule, the gamma-GTP [8] was 0.8 IU/L.
